Data from patent publication US8163740B2, “6-substituted benzoxazines” (Hoffmann-La Roche Inc., priority 2008, dated 2012).

target: recombinant human 5-HT5A receptor (Homo sapiens, UniProt P47898); test: [3H]LSD radioligand binding assay; conditions: [3H]LSD (approximately 1 nM); membranes from HEK-EBNA cells transiently expressing 5-HT5A; Ki by Cheng-Prussoff equation; read-out: Ki
Experimental: A [^3H]LSD radioligand binding assay was used to determine the affinity of the compounds for the recombinant human 5-HT5A receptor, in membranes from transiently (cDNA) expressed 5-HT5A receptors in Human Embryonic Kidney-EBNA (HEK-EBNA) cells. Assay buffer consisted of Tris (50 mM) buffer containing 1 mM EGTA, 10 mM MgCl2 (pH 7.4) and 10 μM pargyline. The binding assay was carried out in 96-well-plates in the presence of [^3H]LSD (approximately 1 nM), approximately 2 μg/well of membrane protein, and 0.5 mg of Ysi-poly-1-lysine SPA beads in a final volume of 200 μl of buffer. Non-specific binding was defined using methiothepin 2 μM. Compounds were tested at 10 concentrations. All assays were conducted in duplicate and repeated at least two times. Assay plates were incubated for 120 min at room temperature before centrifugation. Bound ligand was determined using a Packard Topcount scintillation counter. IC50 values were calculated using a non-linear curve fitting program and Ki values calculated using the Cheng-Prussoff equation.

Chain of recombinant human 5-HT5A receptor (P47898 whole entry): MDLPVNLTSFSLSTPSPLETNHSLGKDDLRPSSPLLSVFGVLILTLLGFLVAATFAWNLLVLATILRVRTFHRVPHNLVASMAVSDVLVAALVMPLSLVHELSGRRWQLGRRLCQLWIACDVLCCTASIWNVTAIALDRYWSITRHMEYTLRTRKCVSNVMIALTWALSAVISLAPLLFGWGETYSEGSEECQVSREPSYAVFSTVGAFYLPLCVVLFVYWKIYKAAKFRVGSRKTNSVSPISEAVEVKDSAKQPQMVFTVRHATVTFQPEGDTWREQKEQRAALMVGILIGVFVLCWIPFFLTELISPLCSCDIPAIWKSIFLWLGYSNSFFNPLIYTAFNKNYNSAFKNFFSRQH

Point of comparison: `CN(C)S(=O)(=O)Nc1ccc2c(c1)COC(NCCOc1ccccc1)=N2` [Example 110, N,N-(Dimethyl)-N′-{2-(2-Phenoxy-ethylamino)-4H-benzo[d][1,3]oxazin-6-yl}-sulfamide], Ki 0.0241 µM. Against it:
- Nc1ccc2c(c1)COC(N[C@@H]1CCCc3ccccc31)=N2 [Example 33, (R)-N^2-(1,2,3,4-Tetrahydro-naphthalen-1-yl)-4H-benzo[d][1,3]oxazine-2,6-diamine] — 3.1-fold lower, 0.00785 µM
- COc1cccc2c1C(NC1=Nc3ccc(NS(C)(=O)=O)cc3CO1)CC2 (racemic) [Example 102, rac-N-[2-(7-Methoxy-indan-1-ylamino)-4H-benzo[d][1,3]oxazin-6-yl]-methanesulfonamide] — 2.9-fold lower, 0.00836 µM
- Nc1ccc2c(c1)COC(NC1COc3cc(F)ccc31)=N2 (racemic) [Example 34, rac-N^2-(6-Fluoro-2,3-dihydro-benzofuran-3-yl)-4H-benzo[d][1,3]oxazine-2,6-diamine] — 5.7-fold lower, 0.00426 µM
- Nc1ccc2c(c1)COC(NC1CCCCCC1)=N2 [Example 92, N^2-Cycloheptyl-4H-benzo[d][1,3]oxazine-2,6-diamine] — within 1.5-fold, 0.0167 µM
- O=S(=O)(Nc1ccc2c(c1)COC(NCCOc1ccccc1)=N2)c1ccccc1 [Example 109, N-[2-(2-Phenoxy-ethylamino)-4H-benzo[d][1,3]oxazin-6-yl]-benzenesulfonamide] — within 1.5-fold, 0.0323 µM
- CN1CCN(CC(=O)Nc2ccc3c(c2)COC(NC2CCCCCC2)=N3)CC1 [Example 93, N-(2-Cycloheptylamino-4H-benzo[d][1,3]oxazin-6-yl)-2-(4-methyl-piperazin-1-yl)-acetamide] — 2.2-fold lower, 0.0108 µM
- CN(C)S(=O)(=O)Nc1ccc2c(c1)COC(NC1CCOc3ccccc31)=N2 (racemic) [Example 91, rac-N,N-(Dimethyl)-N′-{2-(chroman-4-ylamino)-4H-benzo[d][1,3]oxazin-6-yl}-sulfamide] — 2.2-fold higher, 0.0525 µM
- CC(C)NC(=O)Nc1ccc2c(c1)COC(Nc1cccc(C3CC3)c1)=N2 [Example 151, 1-[2-(3-Cyclopropyl-phenylamino)-4H-benzo[d][1,3]oxazin-6-yl]-3-isopropyl-urea] — 4.7-fold higher, 0.114 µM
- Nc1ccc2c(c1)COC(Nc1cccc(C3CC3)c1)=N2 [Example 119, N^2-(3-Cyclopropyl-phenyl)-4H-benzo[d][1,3]oxazine-2,6-diamine] — 1.6-fold higher, 0.0378 µM
- Nc1ccc2c(c1)COC(NC1CCc3cc(F)ccc31)=N2 (racemic) [Example 11, rac-N^2-(5-Fluoro-indan-1-yl)-4H-benzo[d][1,3]oxazine-2,6-diamine] — 19-fold lower, 0.00126 µM
- O=C(Nc1ccc2c(c1)COC(NC1CCOc3ccccc31)=N2)C1CC1 (racemic) [Example 90, rac-Cyclopropanecarboxylic acid [2-(chroman-4-ylamino)-4H-benzo[d][1,3]oxazin-6-yl]-amide] — 2.9-fold lower, 0.00828 µM
- CC(C)NC(=O)Nc1ccc2c(c1)COC(Nc1cccc3c1OC(C)(C)C3)=N2 [Example 139, 1-[2-(2,2-Dimethyl-2,3-dihydro-benzofuran-7-ylamino)-4H-benzo[d][1,3]oxazin-6-yl]-isopropyl-urea] — 10-fold higher, 0.241 µM
- COc1cccc2c1C(NC1=Nc3ccc(N)cc3CO1)CC2 (racemic) [Example 10, rac-N^2-(7-Methoxy-indan-1-yl)-4H-benzo[d][1,3]oxazine-2,6-diamine] — 20-fold lower, 0.0012 µM
- Nc1ccc2c(c1)COC(NC1CCCCCCC1)=N2 [Example 153, N^2-Cyclooctyl-4H-benzo[d][1,3]oxazine-2,6-diamine] — 2-fold lower, 0.0119 µM
- CN1CCN(CC(=O)Nc2ccc3c(c2)COC(N[C@@H]2CCc4ccccc42)=N3)CC1 [Example 3, N-[2-((R)-Indan-1-ylamino)-4H-benzo[d][1,3]oxazin-6-yl]-2-(4-methyl-piperazin-1-yl)-acetamide] — 13-fold lower, 0.00184 µM
- COc1cccc2c1C(NC1=Nc3ccc(C#N)cc3CO1)CC2 (racemic) [Example 142, rac-2-(7-Methoxy-indan-1-ylamino)-4H-benzo[d][1,3]oxazine-6-carbonitrile] — within 1.5-fold, 0.027 µM
- Nc1ccc2c(c1)COC(N[C@@H]1CCc3ccccc31)=N2 [Example 2, (R)-N^2-Indan-1-yl-4H-benzo[d][1,3]oxazine-2,6-diamine] — 23-fold lower, 0.00104 µM
- COC[C@@H]1CN(CC(=O)Nc2ccc3c(c2)COC(N[C@@H]2CCc4ccccc42)=N3)C[C@@H](COC)N1C (mixture of isomers) [Example 158, 2-((3SR,5SR)-3,5-Bis-(methoxymethyl)-4-methyl-piperazin-1-yl)-N-[2-((R)-indan-1-ylamino)-4H-benzo[d][1,3]oxazin-6-yl]-acetamide] — within 1.5-fold, 0.0161 µM
- O=C(Nc1ccc2c(c1)COC(NCCOc1ccccc1)=N2)C1CC1 [Example 96, Cyclopropanecarboxylic acid [2-(2-phenoxy-ethylamino)-4H-benzo[d][1,3]oxazin-6-yl]-amide] — 7.3-fold lower, 0.0033 µM
- COCC(=O)Nc1ccc2c(c1)COC(N[C@@H]1CCc3ccccc31)=N2 [Example 19, N-[2-((R)-Indan-1-ylamino)-4H-benzo[d][1,3]oxazin-6-yl]-2-methoxy-acetamide] — 5.9-fold lower, 0.0041 µM
- O=S(=O)(Nc1ccc2c(c1)COC(N[C@@H]1CCc3ccccc31)=N2)N1CCCCC1 [Example 30, Piperidine-1-sulfonic acid [2-((R)-indan-1-ylamino)-4H-benzo[d][1,3]oxazin-6-yl]-amide] — 5.7-fold lower, 0.0042 µM
- COCC(=O)Nc1ccc2c(c1)COC(NC1COc3cccc(OC)c31)=N2 (racemic) [Example 17, rac-2-Methoxy-N-[2-(4-methoxy-2,3-dihydro-benzofuran-3-ylamino)-4H-benzo[d][1,3]oxazin-6-yl]-acetamide] — within 1.5-fold, 0.0261 µM
- O=C(Cn1ccnc1)Nc1ccc2c(c1)COC(N[C@@H]1CCc3ccccc31)=N2 [Example 67, 2-Imidazol-1-yl-N-[2-((R)-indan-1-ylamino)-4H-benzo[d][1,3]oxazin-6-yl]-acetamide] — 3.2-fold lower, 0.00742 µM
- COc1cccc2c1C(NC1=Nc3ccc(NS(C)(=O)=O)cc3CO1)CO2 (racemic) [Example 114, rac-N-[2-(4-Methoxy-2,3-dihydro-benzofuran-3-ylamino)-4H-benzo[d][1,3]oxazin-6-yl]-methanesulfonamide] — within 1.5-fold, 0.0304 µM
- COc1cccc2c1C(NC1=Nc3ccc(NC(=O)CCl)cc3CO1)CO2 (racemic) [Example 8, rac-2-Chloro-N-[2-(4-methoxy-2,3-dihydro-benzofuran-3-ylamino)-4H-benzo[d][1,3]oxazin-6-yl]-acetamide] — within 1.5-fold, 0.0207 µM
- Fc1ccc2c(c1)CCC2NC1=Nc2ccc(Nc3nccc(C(F)(F)F)n3)cc2CO1 (racemic) [Example 58, rac-N^2-(5-Fluoro-indan-1-yl)-N^6-(4-trifluoromethyl-pyrimidin-2-yl)-4H-benzo[d][1,3]oxazine-2,6-diamine] — 3.5-fold lower, 0.0068 µM
- c1ccc(CNc2ccc3c(c2)COC(NC2CCCCCC2)=N3)cc1 [Example 94, N^6-Benzyl-N^2-cycloheptyl-4H-benzo[d][1,3]oxazine-2,6-diamine] — 2.6-fold higher, 0.0635 µM
- O=S(=O)(Nc1ccc2c(c1)COC(Nc1cccc(C3CC3)c1)=N2)c1ccccc1 [Example 150, N-[2-(3-Cyclopropyl-phenylamino)-4H-benzo[d][1,3]oxazin-6-yl]-benzenesulfonamide] — 12-fold higher, 0.299 µM
- O=S(=O)(Nc1ccc2c(c1)COC(N[C@@H]1CCc3ccccc31)=N2)N1CCOCC1 [Example 31, Morpholine-4-sulfonic acid [2-((R)-indan-1-ylamino)-4H-benzo[d][1,3]oxazin-6-yl]-amide] — 5.5-fold lower, 0.00438 µM
